Results taken from PubChem BioAssay AID1963848 (Molecular Pharmacology Branch, DTP, NCI, 2024).

Test system: 379773-124-R-J2-PDC spheroid viability
Assay: Anticancer human tumor 379773-124-R-J2-PDC patient-derived endometrial carcinoma cell line growth inhibition [POLQ]
Settings: spheroids with HUVEC and MSC; for IC50: curve of first compound; for viability, T/C: stronger effect = lower value
How it was run: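 Growth inhibition in 3D: complex spheroids (tumor PDC, HUVEC, MSC) treated with POLQ inhibitor combinations; where Cmax unknown, highest tested concentration 10 microM, except SN-38 at 1 microM.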

[1] = second compound 0.0316 µM, first compound 0.0316 µM
[2] = second compound 0.0316 µM, first compound 0.1 µM
[3] = second compound 0.0316 µM, first compound 0.316 µM
[4] = second compound 0.0316 µM, first compound 1 µM
[5] = second compound 0.0316 µM, first compound 3.16 µM
[6] = second compound 0.0316 µM, first compound 10 µM
[7] = second compound 0.1 µM, first compound 0.0316 µM
[8] = second compound 0.1 µM, first compound 0.1 µM
[9] = second compound 0.1 µM, first compound 0.316 µM
[10] = second compound 0.1 µM, first compound 1 µM
[11] = second compound 0.1 µM, first compound 3.16 µM
[12] = second compound 0.1 µM, first compound 10 µM
[13] = second compound 0.316 µM, first compound 0.0316 µM
[14] = second compound 0.316 µM, first compound 0.1 µM
[15] = second compound 0.316 µM, first compound 0.316 µM
[16] = second compound 0.316 µM, first compound 1 µM
[17] = second compound 0.316 µM, first compound 3.16 µM
[18] = second compound 0.316 µM, first compound 10 µM
[19] = second compound 1 µM, first compound 0.0316 µM
[20] = second compound 1 µM, first compound 0.1 µM
[21] = second compound 1 µM, first compound 0.316 µM
[22] = second compound 1 µM, first compound 1 µM
[23] = second compound 1 µM, first compound 3.16 µM
[24] = second compound 1 µM, first compound 10 µM
[25] = second compound 3.16 µM, first compound 0.0316 µM
[26] = second compound 3.16 µM, first compound 0.1 µM
[27] = second compound 3.16 µM, first compound 0.316 µM
[28] = second compound 3.16 µM, first compound 1 µM
[29] = second compound 3.16 µM, first compound 3.16 µM
[30] = second compound 3.16 µM, first compound 10 µM
[31] = second compound 10 µM, first compound 0.0316 µM
[32] = second compound 10 µM, first compound 0.1 µM
[33] = second compound 10 µM, first compound 0.316 µM
[34] = second compound 10 µM, first compound 1 µM
[35] = second compound 10 µM, first compound 3.16 µM
[36] = second compound 10 µM, first compound 10 µM
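Also: spheroids exposed to drugs for seven days before readout.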
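For viability, T/C in this document: percent viability relative to DMSO vehicle control taken as 100%.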

O=C(Nc1ccc(O)c(NS(=O)(=O)c2ccc(F)cc2)c1)c1ccc(-c2ccccc2)cc1 + COC1C(OC(N)=O)C(O)C(Oc2ccc3c(O)c(NC(=O)c4ccc(O)c(CC=C(C)C)c4)c(=O)oc3c2C)OC1(C)C
IC50 (second compound 0.0316 µM): > 10 µM
IC50 (second compound 0.1 µM): > 10 µM
IC50 (second compound 0.316 µM): > 10 µM
IC50 (second compound 1 µM): > 10 µM
IC50 (second compound 3.16 µM): > 10 µM
IC50 (second compound 10 µM): > 10 µM
viability, T/C [1]: 88.1%
viability, T/C [2]: 79.6%
viability, T/C [3]: 87.4%
viability, T/C [4]: 75%
viability, T/C [5]: 82.5%
viability, T/C [6]: 76.2%
viability, T/C [7]: 83.5%
viability, T/C [8]: 77.2%
viability, T/C [9]: 99.9%
viability, T/C [10]: 79.5%
viability, T/C [11]: 75.8%
viability, T/C [12]: 74%
viability, T/C [13]: 82%
viability, T/C [14]: 92.8%
viability, T/C [15]: 95.6%
viability, T/C [16]: 73.4%
viability, T/C [17]: 86.4%
viability, T/C [18]: 67.1%
viability, T/C [19]: 95.1%
viability, T/C [20]: 73.5%
viability, T/C [21]: 79.8%
viability, T/C [22]: 79%
viability, T/C [23]: 83.9%
viability, T/C [24]: 70.1%
viability, T/C [25]: 79.2%
viability, T/C [26]: 88.2%
viability, T/C [27]: 77.9%
viability, T/C [28]: 80.7%
viability, T/C [29]: 90.3%
viability, T/C [30]: 83.3%
viability, T/C [31]: 84.4%
viability, T/C [32]: 78.9%
viability, T/C [33]: 80.7%
viability, T/C [34]: 80.4%
viability, T/C [35]: 75.3%
viability, T/C [36]: 74.6%

CC1COCCN1c1cc(C2(S(C)(=N)=O)CC2)nc(-c2ccnc3[nH]ccc23)n1 (centres undefined) + Nc1ccc(C#CCN(C(=O)Cc2ncc(C(F)(F)F)cc2C(F)(F)F)c2ccc(F)cc2)nn1
IC50 (second compound 0.0316 µM): 2.76 µM
IC50 (second compound 0.1 µM): 3.07 µM
IC50 (second compound 0.316 µM): 2.67 µM
IC50 (second compound 1 µM): 3.05 µM
IC50 (second compound 3.16 µM): 2.54 µM
IC50 (second compound 10 µM): 2.64 µM
viability, T/C [1]: 89.8%
viability, T/C [2]: 90.3%
viability, T/C [3]: 86.5%
viability, T/C [4]: 89.9%
viability, T/C [5]: 44.8%
viability, T/C [6]: 9.42%
viability, T/C [7]: 89.2%
viability, T/C [8]: 89.6%
viability, T/C [9]: 87.9%
viability, T/C [10]: 83.5%
viability, T/C [11]: 49.1%
viability, T/C [12]: 9.47%
viability, T/C [13]: 89.8%
viability, T/C [14]: 97.5%
viability, T/C [15]: 87.1%
viability, T/C [16]: 84.4%
viability, T/C [17]: 44%
viability, T/C [18]: 10.4%
viability, T/C [19]: 97.9%
viability, T/C [20]: 101%
viability, T/C [21]: 87.9%
viability, T/C [22]: 85.3%
viability, T/C [23]: 48.1%
viability, T/C [24]: 10.3%
viability, T/C [25]: 93.5%
viability, T/C [26]: 85.6%
viability, T/C [27]: 78.5%
viability, T/C [28]: 89.3%
viability, T/C [29]: 41.3%
viability, T/C [30]: 11.1%
viability, T/C [31]: 95.7%
viability, T/C [32]: 85.3%
viability, T/C [33]: 90.9%
viability, T/C [34]: 86.4%
viability, T/C [35]: 43.2%
viability, T/C [36]: 9.54%
